Literature values in patent US20120171270A1, “DUAL ACTION ORGANIC FORMULATION TO CONTROL TWO STAGES OF INSECT PESTS” (priority 2010, published 2012).

Columns and labels:
gypsy moth larvae [1] = settings: 3-day exposure; 13-day evaluation; 2nd instar larvae; red oak leaf disks
gypsy moth larvae [2] = test system: gypsy moth larvae
gypsy moth larvae [3] = settings: 16 hours after a 2 minute crawling exposure to glass coated with a 4 mg/litre spinosad solution
[4] = test system: mammalian and avian species; settings: in vivo

| Compound | LC50 (gypsy moth larvae [1]) | population reduction at low application rate (gypsy moth larvae [2]; application rate of 0.75 mg/litre) | concentrations that effectively controlled larvae (gypsy moth larvae [2]; applied to foliage to run-off, 2nd instar larvae, laboratory and field) | larval population reduction (gypsy moth larvae [2]; at 3 to 50 mg/litre applied to run-off) | toxicity in the laboratory, efficacy and persistence in the field versus permethrin (gypsy moth larvae [2]; in vivo) | treated larvae paralyzed (gypsy moth larvae [3]) | toxicity to mammalian and avian species [4] | mating in low-density populations at lower doses (gypsy moth; 15, 6, and 3 grams per acre) | mating in low-density populations (gypsy moth; 30 grams per acre) |
| --- | --- | --- | --- | --- | --- | --- | --- | --- | --- |
| spinosad | 0.0015 mg AI/cm2 | large population reductions | 3 ± 50 mg/L | 95±100% | comparable to those achieved with permethrin | 50% | little or no toxicity |  |  |
| CCCCCCCCCC[C@H]1O[C@H]1CCCCC(C)C [disparlure] |  |  |  |  |  |  |  | can be suppressed | suppresses mating |
